This note sets out measurements from EP0067913B1, “Composition for the treatment of acne” (RUSH-HAMPTON INDUSTRIES, INC., priority 1981, dated 1982).

The test system of data set [1] is Pityrosporum ovale ATCC 14521. Description: Fungicidal activity test in corn oil medium (Sabouraud Dextrose broth and corn oil). In kind it is cell-based. As to conditions: concentrations of 200 ppm or greater in the upper oil layer; 37°C, aerobic conditions, 7 days. The protocol:
This organism is cultured in a corn oil medium prepared with Sabouraud Dextrose broth and Mazola@ Corn Oil. Solutions of naringenin and this broth were made in which the concentration of naringenin in the upper oil layer was 200 ppm, 400 ppm, 600 ppm, and 800 ppm. Three solutions of each concentration were tested. Each tube was inoculated with a loop full of the test organism and incubated at 37°C under aerobic conditions for 7 days.

Data set [2] can be described thus: Water solubility (qualitative comparison). The data set is classed as physicochemical. As to conditions: qualitative comparison with partially hydrolyzed naringin.

Consider `O=C1C[C@@H](c2ccc(O)cc2)Oc2cc(O)cc(O)c21` [naringenin], for which, in data set [1], the “effect on the growth of Pityrosporum ovale ATCC 14521” value is recorded as “severely retarded the growth”. Besides, the water solubility result in data set [2] is reported as “less than those of partially hydrolyzed naringin”.
